Laboratory results taken from patent US20220041647A1, “ESTRA-1,3,5(10)-TRIENE COMPOUNDS CONDENSED IN POSITION 16(17) WITH A PYRAZOLE RING AS INHIBITORS OF 17-HSD1” (FORENDO PHARMA LTD, priority 2018, published 2022).

Experiments:
[1] = molecular target: T1, recombinant human 17β-HSD1 (Homo sapiens, UniProt P14061); assay: Inhibition of recombinant human 17β-HSD1 (estrone to estradiol conversion, HPLC/radioactivity); assay type: biochemical; conditions: compound 100 nM; 30 nM estrone, 1 mM NADPH, 30 min RT
T1 construct: made in house; host or cells: Sd9 (Sf9) insect cells, baculovirus (Bac to Bac Expression System)
T1 sequence (P14061 1-328): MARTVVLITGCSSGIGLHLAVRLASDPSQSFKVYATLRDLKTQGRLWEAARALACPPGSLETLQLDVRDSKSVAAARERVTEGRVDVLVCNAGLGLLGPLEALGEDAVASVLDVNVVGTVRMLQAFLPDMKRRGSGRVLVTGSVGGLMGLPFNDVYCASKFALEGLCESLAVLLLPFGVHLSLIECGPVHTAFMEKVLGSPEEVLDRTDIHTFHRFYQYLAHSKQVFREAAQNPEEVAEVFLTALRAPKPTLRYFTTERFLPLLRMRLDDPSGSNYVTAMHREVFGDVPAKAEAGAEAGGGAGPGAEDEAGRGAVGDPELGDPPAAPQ
Procedure, shortened: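 Microsomal human 17β-HSD1 from Sf9 baculovirus (1 μg/ml) was incubated 30 min at RT in 20 mM KH2PO4 pH 7.4 with 30 nM ^3H-estrone, 1 mM NADPH and inhibitor at 1 μM or 0.1 μM (1% DMSO). Estrone and estradiol were separated by HPLC with radioactivity detection. % inhibition = 100 − % conversion relative to uninhibited control.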

[2] = system: HSD1 enzyme that is expressed in rabbit placenta tissue; assay: Inhibition of E1 to E2 conversion in rabbit placenta tissue homogenate; assay type: biochemical; conditions: compound 100 nM, 30 nM estrone, 1 mM β-NADPH, 30 min
Procedure, shortened: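 Rabbit placenta homogenate (20 mM KH2PO4, 1 mM EDTA, pH 7.4) incubated 30 min with 1 mM β-NADPH, 30 nM estrone plus 5 nM [3H]-estrone tracer, and inhibitor at 1 μM or 0.1 μM (1% DMSO). Stopped with TCA; estrone and estradiol resolved by HPLC with scintillation counting; % inhibition = 100 − % conversion relative to uninhibited control.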

Structure (SMILES) | inhibition at 0.1 µM [1] | Rabbit placenta inhibition % @100 nM [2]
COc1ccnc(NC(=O)CC[C@@H]2c3c[nH]nc3[C@@]3(C)CCC4c5cccc(F)c5CCC4C23)c1 (stereo partly drawn) [Compound 48, 3-((8aS,12S)-3-fluoro-8a-methyl-1,2,6b,7,8,8a,10,12,12a,12b-decahydronaphtho[2′,1′:4,5]indeno[1,2-c]pyrazol-12-yl)-N-(4-methoxypyridin-2-yl)propanamide] | 91% | 57%
CN(C)C(=O)CC[C@@H]1c2c[nH]nc2[C@@]2(C)CCC3c4cccc(F)c4CCC3C12 (stereo partly drawn) [Compound 222, 3-((8aS,12S)-3-fluoro-8a-methyl-1,2,6b,7,8,8a,10,12,12a,12b-decahydronaphtho[2′,1′:4,5]indeno[1,2-c]pyrazol-12-yl)-N,N-dimethylpropanamide] | 91% | 11%
C[C@]12CCC3c4cccc(F)c4CCC3C1[C@H](CCC(=O)Nc1ccc(N3CCOCC3)cn1)c1c[nH]nc12 (stereo partly drawn) [Compound 39, 3-((8aS,12S)-3-fluoro-8a-methyl-1,2,6b,7,8,8a,10,12,12a,12b-decahydronaphtho[2′,1′:4,5]indeno[1,2-c]pyrazol-12-yl)-N-(5-morpholinopyridin-2-yl)propanamide] | 91% | 69%
C[C@]12CCC3c4ccc(F)cc4CCC3C1[C@H](CCC(=O)Nc1ccc(F)cn1)c1c[nH]nc12 (stereo partly drawn) [Compound 99, 3-((8aS,12S)-4-fluoro-8a-methyl-1,2,6b,7,8,8a,10,12,12a,12b-decahydronaphtho[2′,1′:4,5]indeno[1,2-c]pyrazol-12-yl)-N-(5-fluoropyridin-2-yl)propanamide] | 84% | 10%
CN(C)C(=O)c1ccc(NC(=O)CC[C@@H]2c3c[nH]nc3[C@@]3(C)CCC4c5cccc(F)c5CCC4C23)nc1 (stereo partly drawn) [Compound 33, 6-(3-((8aS,12S)-3-fluoro-8a-methyl-1,2,6b,7,8,8a,10,12,12a,12b-decahydronaphtho[2′,1′:4,5]indeno[1,2-c]pyrazol-12-yl)propanamido)-N,N-dimethylnicotinamide] | 95% | 68%
COc1ccc(NC(=O)CC[C@@H]2c3c[nH]nc3[C@@]3(C)CCC4c5ccc(F)cc5CCC4C23)nc1 (stereo partly drawn) [Compound 84, 3-((8aS,12S)-4-fluoro-8a-methyl-1,2,6b,7,8,8a,10,12,12a,12b-decahydronaphtho[2′,1′:4,5]indeno[1,2-c]pyrazol-12-yl)-N-(5-methoxypyridin-2-yl)propanamide] | 87% | 27%
Cc1ccnc(NC(=O)CC[C@@H]2c3c[nH]nc3[C@@]3(C)CCC4c5ccc(F)cc5CCC4C23)c1 (stereo partly drawn) [Compound 93, 3-((8aS,12S)-4-fluoro-8a-methyl-1,2,6b,7,8,8a,10,12,12a,12b-decahydronaphtho[2′,1′:4,5]indeno[1,2-c]pyrazol-12-yl)-N-(4-methylpyridin-2-yl)-propanamide] | 79% | 31%
